Laboratory results as given in patent publication US20120129842A1, “BISTHIAZOLE INHIBITORS OF PRO-MATRIX METALLOPROTEINASE ACTIVATION” (priority 2010, published 2012).
Structures can show the parent of a compound that is named as a salt.

Legend:
[1] = target: T1, proMMP9(67-444;ΔFnII) (SEQ ID NO:5) (Homo sapiens, UniProt P14780, DEL216-390); experiment: ThermoFluor binding assay with proMMP9(67-444;ΔFnII); settings: pH 7.0
T1 construct: start methionine (N); made in house; host or cells: E. coli BL21(DE3) RIL
T1 sequence (P14780 with tags, fused parts or gaps DEL216-390): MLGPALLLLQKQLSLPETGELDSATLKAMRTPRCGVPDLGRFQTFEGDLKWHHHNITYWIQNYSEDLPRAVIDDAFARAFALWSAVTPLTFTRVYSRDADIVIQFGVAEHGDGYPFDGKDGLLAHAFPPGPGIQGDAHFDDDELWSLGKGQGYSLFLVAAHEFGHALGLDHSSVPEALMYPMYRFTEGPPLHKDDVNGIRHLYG
Procedure: (§1) The ThermoFluor® (TF) assay is a 384-well plate-based binding assay that measures thermal stability of proteins (Biomol Screen 2001, 6, 429-40; Biochemistry 2005, 44, 5258-66). The experiments were carried out using instruments available from Johnson & Johnson Pharmaceutical Research & Development, LLC. TF dye used in all experiments was […] (1,8-ANS) (Invitrogen: A-47).
(§2) Compounds were arranged in a pre-dispensed plate (Greiner Bio-one: 781280), wherein compounds were serially diluted in 100% DMSO across 11 columns within a series. Columns 12 and 24 were used as DMSO reference and contained no compound. For multiple compound concentration-response experiments, the compound aliquots ([…]) were robotically predispensed directly into black 384-well polypropylene PCR microplates (Abgene: TF-0384/k) using a Cartesian Hummingbird liquid handler (DigiLab, Holliston, Mass.). Following compound dispense, protein and dye solutions were added to achieve the final assay volume of 3 μL. The assay solutions were overlayed with 1 μL of silicone oil (Fluka, type DC 200: 85411) to prevent evaporation.
(§3) Assay plates were robotically loaded onto a thermostatically controlled PCR-type thermal block and then heated from 40 to 90° C. at a ramp-rate of 1° C./min for all experiments. Fluorescence was measured by continuous illumination with UV light (Hamamatsu LC6) supplied via fiber optics and filtered through a band-pass filter (380-400 nm; >6 OD cutoff). Fluorescence emission of the entire 384-well plate was detected by measuring light intensity using a CCD camera (Sensys, Roper Scientific) filtered to detect 500±25 nm, resulting in simultaneous and independent readings of all 384 wells. A single image with 20-sec exposure time was collected at each temperature, and the sum of the pixel intensity in a given area of the assay plate was recorded vs temperature and fit to standard equations to yield the Tm (J Biomol Screen 2001, 6, 429-40).
(§4) Thermodynamic parameters necessary for fitting compound binding for each proMMP were estimated by differential scanning calorimetry (DSC) and from ThermoFluor® data. The heat capacity of unfolding for each protein was estimated from the molecular weight and from ThermoFluor® dosing data.
The protein sample preparations had to include a desalting buffer exchange step via a PD-10 gravity column (GE Healthcare). The desalting buffer exchange was performed prior to diluting the protein to the final assay concentration of 3.5 μM proMMP9(67-444;ΔFnII) (SEQ ID NO:5). The concentration of proMMP9(67-444;ΔFnII) (SEQ ID NO:5) was determined spectrophotometrically based on a calculated extinction coefficient of ε280=33900 M^−1cm^−1, a calculated molecular weight of 22.6 kDa, and calculated pI of 5.20. ThermoFluor® reference conditions were defined as follows: 80 μg/mL (3.5 μM) proMMP9(67-444;ΔFnII) (SEQ ID NO:5), 50 μM 1,8-ANS, pH 7.0 Buffer (50 mM HEPES pH 7.0, 100 mM NaCl, 0.001% Tween-20, 2.5 mM MgCl2, 300 μM CaCl2). The thermodynamic parameters for proMMP9(67-444;ΔFnII) (SEQ ID NO:5) are as follows: Tm (° C.)=63 (+/−0.1), ΔUH(Tm) (cal mol^−1)=105000(+/−5000), ΔUS(Tm) (cal mol^−1 K^−1)=[…], ΔUCp (cal mol^−1 K^−1)=2000.

[2] = target: T2, proMMP9(20-445;ΔFnII) (SEQ ID NO:6) (Homo sapiens, UniProt P14780, DEL216-390); experiment: ThermoFluor binding assay with proMMP9(20-445;ΔFnII); settings: pH 7.0
T2 construct: start methionine (N); made in house; host or cells: E. coli BL21(DE3) RIL
T2 sequence (P14780 with tags, fused parts or gaps DEL216-390): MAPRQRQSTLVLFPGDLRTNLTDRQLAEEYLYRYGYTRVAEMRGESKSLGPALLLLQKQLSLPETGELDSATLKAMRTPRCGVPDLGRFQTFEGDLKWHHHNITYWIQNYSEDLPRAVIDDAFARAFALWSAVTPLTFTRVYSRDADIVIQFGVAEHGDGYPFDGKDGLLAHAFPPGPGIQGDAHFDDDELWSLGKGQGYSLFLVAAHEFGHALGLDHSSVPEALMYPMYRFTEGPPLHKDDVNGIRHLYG
Procedure: as §1, §2, §3, §4
The protein sample preparations included a desalting buffer exchange step via a PD-10 gravity column (GE Healthcare). The desalting buffer exchange was performed prior to diluting the protein to the final assay concentration of 2.8 μM proMMP9(20-445;ΔFnII) (SEQ ID NO:6). The concentration of proMMP9(20-445;ΔFnII) (SEQ ID NO:6) was determined spectrophotometrically based on a calculated extinction coefficient of ε280=39880 M^−cm^−1, a calculated molecular weight of 28.2 kDa, and calculated pI of 5.5. ThermoFluor® reference conditions were define as follows: 80 μg/mL (2.8 μM) proMMP9(20-445;ΔFnII) (SEQ ID NO:6), 50 μM 1,8-ANS, pH 7.0 Buffer (50 mM HEPES pH 7.0, 100 mM NaCl, 0.001% Tween-20, 2.5 mM MgCl2, 300 μM CaCl2). The thermodynamic parameters for proMMP9(20-445;ΔFnII) (SEQ ID NO:6) are as follows: Tm (° C.)=72 (+/−0.1), ΔUH(Tm) (cal mol^−1)=160000(+/−5000), ΔUS(Tm) (cal mol^−1 K^−1)=434, ΔUCp (cal mol^−1 K^−)=2400.

[3] = target: proMMP13(1-268) (SEQ ID NO:7) (Homo sapiens, UniProt P45452); experiment: ThermoFluor binding assay with proMMP13(1-268); parameters: 6xHis (C); made in house; settings: pH 7.0
Procedure: as §1, §2, §3, §4
The proMMP13(1-268) (SEQ ID NO:7) protein sample preparations included a desalting buffer exchange step via a PD-10 gravity column (GE Healthcare). The desalting buffer exchange was performed prior to diluting the protein to the final assay concentration of 3.5 μM. The concentration of proMMP13(1-268) (SEQ ID NO:7) was estimated spectrophotometrically based on a calculated extinction coefficient of ε280=37000 M^−1cm^−1, a calculated molecular weight of 30.8 kDa, and calculated pI of 5.33. ThermoFluor® reference conditions were defined as follows: 100 μg/mL proMMP13(1-268) (SEQ ID NO:7), 25 μM 1,8-ANS, pH 7.0 Buffer (50 mM HEPES pH 7.0, 100 mM NaCl, 0.001% Tween-20, 2.5 mM MgCl2, 300 μM CaCl2). The thermodynamic parameters for proMMP13(1-268) (SEQ ID NO:7) are as follows: Tm (° C.)=67 (+/−0.1), ΔUH(Tm) (cal mol^−1)=107000(+/−5000), ΔUS(Tm) (cal mol^−1 K^−1)=318, ΔUCp (cal mol^−1 K^−1)=2600.

[4] = target: T3, full-length proMMP9(1-707) (SEQ ID NO:1) (Homo sapiens, UniProt P14780, R574P); experiment: proMMP9/MMP3 P126 Activation Assay; type: biochemical; settings: 20 nM proMMP9, 20 nM MMP3, 80 min 37° C.
T3 construct: made in house; host or cells: HEK293 (proMMP9, secreted); E. coli (MMP3)
T3 sequence (P14780 20-707 R574P): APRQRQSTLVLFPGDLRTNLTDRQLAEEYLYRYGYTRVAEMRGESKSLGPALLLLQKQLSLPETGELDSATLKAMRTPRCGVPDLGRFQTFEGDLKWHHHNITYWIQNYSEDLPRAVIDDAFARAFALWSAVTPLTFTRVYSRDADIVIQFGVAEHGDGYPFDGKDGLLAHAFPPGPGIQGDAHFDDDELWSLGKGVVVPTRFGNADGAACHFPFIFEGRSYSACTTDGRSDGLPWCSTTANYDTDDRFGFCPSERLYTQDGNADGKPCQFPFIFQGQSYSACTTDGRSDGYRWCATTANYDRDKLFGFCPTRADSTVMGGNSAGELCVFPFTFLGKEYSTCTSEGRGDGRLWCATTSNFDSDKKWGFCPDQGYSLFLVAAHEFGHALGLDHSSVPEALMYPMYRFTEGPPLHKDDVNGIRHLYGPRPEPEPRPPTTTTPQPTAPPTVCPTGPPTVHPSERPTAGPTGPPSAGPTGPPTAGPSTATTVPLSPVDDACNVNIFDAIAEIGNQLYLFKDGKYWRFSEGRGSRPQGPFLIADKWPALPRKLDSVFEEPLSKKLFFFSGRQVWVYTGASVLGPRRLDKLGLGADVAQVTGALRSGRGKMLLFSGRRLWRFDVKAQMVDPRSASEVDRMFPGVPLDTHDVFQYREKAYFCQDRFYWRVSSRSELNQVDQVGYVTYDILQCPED
Procedure: The reaction volume was 50 μL. […] Reactivity of residual MMP3 towards P-126 substrate was minimal under these conditions.

Kd [1] [nM]	Kd [2] [nM]	Kd [3] [nM]	IC50 [4] [nM]	SMILES
480	15000	2900		CCOc1ccc(-c2ncco2)cc1Nc1nc(-c2sc(NC(C)=O)nc2C)cs1 [Example 78, N-[2-(2-Ethoxy-5-oxazol-2-yl-phenylamino)-4′-methyl-[4,5′]bithiazolyl-2′-yl]-acetamide.TFA]
2100	240		1300	Cc1nc(C)c(-c2csc(Nc3cc(C(N)=O)ccc3OCC(F)(F)F)n2)s1 [Example 16, 3-(2′,4′-Dimethyl-[4,5′]bithiazolyl-2-ylamino)-4-(2,2,2-trifluoro-ethoxy)-benzamide]
1200	1500		1900	COc1ccc(S(N)(=O)=O)cc1Nc1nc(-c2sc(NC(C)=O)nc2C)cs1 [Example 53, N-[2-(2-Methoxy-5-sulfamoyl-phenylamino)-4′-methyl-[4,5′]bithiazolyl-2′-yl]-acetamide.HBr]
40000	31000		~5000	COc1ccc(-c2c(C)noc2C)cc1Nc1nc(-c2sc(C)nc2C)cs1 [Example 135, (2′,4′-Dimethyl-[4,5′]bithiazolyl-2-yl)-[5-(3,5-dimethyl-isoxazol-4-yl)-2-methoxy-phenyl]-amine]
> 95000	18000		> 20000	COc1ccc(-c2ccc(C(C)=O)s2)cc1Nc1nc(-c2sc(C)nc2C)cs1 [Example 134, 1-{5-[3-(2′,4′-Dimethyl-[4,5′]bithiazolyl-2-ylamino)-4-methoxy-phenyl]-thiophen-2-yl}-ethanone]
520	140		300	Cc1nc(N2CCCC2)sc1-c1csc(Nc2cc(C(N)=O)ccc2OC(C)C)n1 [Example 91, 4-Isopropoxy-3-(4′-methyl-2′-pyrrolidin-1-yl-[4,5′]bithiazolyl-2-ylamino)-benzamide.TFA]
330	4300		520	CC(=O)Nc1nc(C)c(-c2csc(Nc3cc(C#N)ccc3OC(C)C)n2)s1 [Example 73, N-[2-(5-Cyano-2-isopropoxy-phenylamino)-4′-methyl-[4,5′]bithiazolyl-2′-yl]-acetamide.HBr]
7200	570		3600	COc1cc(C)c(C(N)=O)cc1Nc1nc(-c2sc(N3CCN(C)CC3)nc2C)cs1 [Example 37, 4-Methoxy-2-methyl-5-[4′-methyl-2′-(4-methyl-piperazin-1-yl)-[4,5]bithiazolyl-2-ylamino]-benzamide.HCl]
2000	2200		2600	CCSc1ccc(S(N)(=O)=O)cc1Nc1nc(-c2sc(C)nc2C)cs1 [Example 154, 3-((2′,4′-Dimethyl-[4,5′-bithiazol]-2-yl)amino)-4-(ethylthio)benzenesulfonamide]
650	130		780	Cc1nc(-c2cnccn2)sc1-c1csc(Nc2cc(C(N)=O)ccc2OC(C)C)n1 [Example 145]
340	1900		290	COc1ccncc1Nc1nc(-c2sc(N3CCN(C)CC3)nc2C)cs1 [Example 155, N-(4-Methoxypyridin-3-yl)-4′-methyl-2′-(4-methylpiperazin-1-yl)-[4,5′-bithiazol]-2-amine.TFA]
2800	1000		5200	COc1ccc(C(N)=O)cc1Nc1nc(-c2cnc(N)s2)cs1 [Example 27, 3-(2′-Amino-[4,5′]bithiazolyl-2-ylamino)-4-methoxy-benzamide.HBr]
1600	870		1200	COc1ccc(S(N)(=O)=O)cc1Nc1nc(-c2sc(N)nc2C)cs1 [Example 52, 3-(2′-Amino-4′-methyl-[4,5′]bithiazolyl-2-ylamino)-4-methoxy-benzenesulfonamide.HBr]
6400	5700		4700	Cc1nc(C)c(-c2nc(Nc3cc(S(N)(=O)=O)ccc3OC(C)C)sc2C)s1 [Example 152, 4-Isopropoxy-3-((2′,4′,5-trimethyl-[4,5′-bithiazol]-2-yl)amino)benzenesulfonamide]
220	45		340	Cc1nc(Nc2ccncc2)sc1-c1csc(Nc2cc(C(N)=O)ccc2OC(C)C)n1 [Example 92, 4-Isopropoxy-3-[4′-methyl-2′-(pyridin-4-ylamino)-[4,5′]bithiazolyl-2-ylamino]-benzamide.TFA]

SMILES	Kd [1] [nM]	Kd [2] [nM]	Kd [3] [nM]	IC50 [4] [nM]
Cc1nc(C)c(-c2csc(Nc3cc(C(N)=O)ccc3OC(C)(C)C)n2)s1 [Example 12, 4-tert-Butoxy-3-(2′,4′-dimethyl-[4,5′]bithiazolyl-2-ylamino)-benzamide]	15000	1900		2500
